According to patent US8846686B2, “Compounds useful as inhibitors of ATR kinase” (Vertex Pharmaceuticals Incorporated, priority 2011, dated 2014):

Assays:
full-length ATR = target: T1, full-length ATR (Homo sapiens, UniProt Q13535); assay: ATR inhibition assay (radioactive-phosphate incorporation); assay type: biochemical; details: Ki(app), 5 nM full-length ATR, 10 μM ATP
T1 construct: Assays are carried out at 25° C. in the presence of 5 nM full-length ATR
Experimental: Compounds can be screened for their ability to inhibit ATR kinase using a radioactive-phosphate incorporation assay. Assays are carried out in a mixture of 50 mM Tris/HCl (pH 7.5), 10 mM MgCl2 and 1 mM DTT. Final substrate concentrations are 10 μM [γ-33P]ATP (3 mCi ^33P ATP/mmol ATP, Perkin Elmer) and 800 μM target peptide (ASELPASQPQPFSAKKK (SEQUENCE ID NO: 1)).
Assays are carried out at 25° C. in the presence of 5 nM full-length ATR. An assay stock buffer solution is prepared containing all of the reagents listed above, with the exception of ATP and the test compound of interest. 13.5 μL of the stock solution is placed in a 96 well plate followed by addition of 2 μL of DMSO stock containing serial dilutions of the test compound (typically starting from a final concentration of 15 μM with 3-fold serial dilutions) in duplicate (final DMSO concentration 7%). The plate is pre-incubated for 10 minutes at 25° C. and the reaction initiated by addition of 15 μL [γ-33P]ATP (final concentration 10 μM).
The reaction is stopped after 24 hours by the addition of 30 μL 0.1M phosphoric acid containing 2 mM ATP. A multiscreen phosphocellulose filter 96-well plate (Millipore, Cat no. MAPHN0B50) is pretreated with 100 μL 0.2M phosphoric acid prior to the addition of 45 μL of the stopped assay mixture. The plate is washed with 5×200 μL 0.2M phosphoric acid. After drying, 100 μL Optiphase ‘SuperMix’ liquid scintillation cocktail (Perkin Elmer) is added to the well prior to scintillation counting (1450 Microbeta Liquid Scintillation Counter, Wallac).
After removing mean background values for all of the data points, Ki(app) data are calculated from non-linear regression analysis of the initial rate data using the Prism software package (GraphPad Prism version 3.0cx for Macintosh, GraphPad Software, San Diego Calif., USA).

Colo205 model = assay: COLO205 model with irinotecan as the DNA damaging agent; assay type: in vivo, mouse
From the text: (§1) T/C=tumour size of treatment group compared with control group

[1] = Mouse PO/PK in tumor (FIG. 6); assay type: in vivo; details: mouse grafted with tumors, compared with Compound P-110
From the text: FIG. 6: Mouse PO/PK in tumor

primary NSCLC model = assay: Primary non-small cell lung cancer (NSCLC) model with cisplatin as the DNA damaging agent; assay type: in vivo, mouse
From the text: as §1

[2] = Pharmacokinetics (noncompartmental, blood or plasma); details: in vivo, intravenous (IV) dosing
From the text: Noncompartmental pharmacokinetic parameters can be analyzed using Watson Bioanalytical LIMS (Version 7.4; Thermo Fisher Scientific) from either the blood or plasma samples. The following parameters are estimated following intravenous (IV) dosing; terminal elimination half-life (T1/2=ln(2)/λz, where λz is the first order rate constant associated with the terminal (log-linear) portion of the curve. The area under the curve (AUClast=area under the curve from the time of dosing to the last measurable concentration). The area under the curve extrapolated to infinity (AUC0-∞=AUClast+Clast/λz). The clearance (Cl; Cl=DoseIV/AUC0-∞).
The area under the first moment curve (AUMClast=area under the concentration times time versus time curve from the time of dosing to the last measurable concentration). The area under the first moment curve extrapolated to infinity (AUMC0-∞=AUMClast+Clast×t/λz+Clast/λz^2). The mean residence time (MRT=AUMC0-∞/AUC0-∞) and the steady state volume of distribution (Vdss=MRT×Cl).
Clearance and volume of distribution can also be obtained using methods known to one of skill in the art (see e.g., Handbook of Essential Pharmacokinetics, Pharmacodynamics and Drug Metabolism for Industrial Scientists, Younggil Kwon, pp 18-28 (Non-compartmental Approach)).

[3] = test system: HCT116 colorectal cancer cells; assay: Single agent HCT116 activity, 96 h cell viability (MTS) assay; assay type: cell-based; details: Homo sapiens, HCT-116; 96 h MTS cell viability; read-out: Single agent HT116 IC50
Experimental: Compounds can be screened for single agent activity against HCT116 colorectal cancer cells using a 96 h cell viability (MTS) assay. HCT116 are plated at 470 cells per well in 96-well polystyrene plates (Costar 3596) in 150 μl of McCoy's 5A media (Sigma M8403) supplemented with 10% foetal bovine serum (JRH Biosciences 12003), Penicillin/Streptomycin solution diluted 1:100 (Sigma P7539), and 2 mM L-glumtamine (Sigma G7513), and allowed to adhere overnight at 37° C. in 5% CO2. Compounds are then added to the cell media in 2-fold serial dilutions from a top final concentration of 10 μM as a full matrix of concentrations in a final cell volume of 200 μl, and the cells are then incubated at 37° C. in 5% CO2. After 96 h, 40 μl of MTS reagent (Promega G358a) is added to each well and the cells are incubated for 1 h at 37° C. in 5% CO2. Finally, absorbance is measured at 490 nm using a SpectraMax Plus 384 reader (Molecular Devices) and IC50 values can be calculated.

[4] = test system: HCT116 colorectal cancer cells; assay: Cisplatin sensitization assay, 96 h cell viability (MTS); assay type: cell-based; details: concentration of compound required to reduce the IC50 of Cisplatin alone by at least 3-fold; HCT116, 96 h
Experimental: Compounds can be screened for their ability to sensitize HCT116 colorectal cancer cells to Cisplatin using a 96 h cell viability (MTS) assay. […] Compounds and Cisplatin are then both added simultaneously to the cell media in 2-fold serial dilutions from a top final concentration of 10 μM as a full matrix of concentrations in a final cell volume of 200 μl, and the cells are then incubated at 37° C. in 5% CO2. After 96 h, 40 μl of MTS reagent (Promega G358a) is added to each well and the cells are incubated for 1 h at 37° C. in 5% CO2. Finally, absorbance is measured at 490 nm using a SpectraMax Plus 384 reader (Molecular Devices) and the concentration of compound required to reduce the IC50 of Cisplatin alone by at least 3-fold (to 1 decimal place) can be reported.

intracellular ATR = target: T2, intracellular ATR (Homo sapiens, UniProt Q13535); assay: Cellular ATR inhibition assay (H2AX phosphorylation in hydroxyurea treated HT29 cells); assay type: cell-based; details: 2 mM hydroxyurea, phosphorylated H2AX-positive nuclei
T2 construct: endogenous in cells; host or cells: HT29
Experimental: Compounds can be screened for their ability to inhibit intracellular ATR using an immunofluorescence microscopy assay to detect phosphorylation of the ATR substrate histone H2AX in hydroxyurea treated cells. HT29 cells are plated at 14,000 cells per well in 96-well black imaging plates (BD 353219) in McCoy's 5A media (Sigma M8403) supplemented with 10% foetal bovine serum (JRH Biosciences 12003), Penicillin/Streptomycin solution diluted 1:100 (Sigma P7539), and 2 mM L-glumtamine (Sigma G7513), and allowed to adhere overnight at 37° C. in 5% CO2. Compounds are then added to the cell media from a final concentration of 25 μM in 3-fold serial dilutions and the cells are incubated at 37° C. in 5% CO2. After 15 min, hydroxyurea (Sigma H8627) is added to a final concentration of 2 mM.
After 45 min of treatment with hydroxyurea, the cells are washed in PBS, fixed for 10 min in 4% formaldehyde diluted in PBS (Polysciences Inc 18814), washed in 0.2% Tween-20 in PBS (wash buffer), and permeabilised for 10 min in 0.5% Triton X-100 in PBS, all at room temperature. The cells are then washed once in wash buffer and blocked for 30 min at room temperature in 10% goat serum (Sigma G9023) diluted in wash buffer (block buffer). […]
Cells are imaged for Alexa Fluor 488 and Hoechst intensity using the BD Pathway 855 Bioimager and Attovision software (BD Biosciences, Version 1.6/855) to quantify phosphorylated H2AX Ser139 and DNA staining, respectively. The percentage of phosphorylated H2AX-positive nuclei in a montage of 9 images at 20× magnification is then calculated for each well using BD Image Data Explorer software (BD Biosciences Version 2.2.15). […] The percentage of H2AX positive nuclei is finally plotted against concentration for each compound and IC50s for intracellular ATR inhibition are determined using Prism software (GraphPad Prism version 3.0cx for Macintosh, GraphPad Software, San Diego Calif., USA).

T2 sequence (Q13535 whole entry): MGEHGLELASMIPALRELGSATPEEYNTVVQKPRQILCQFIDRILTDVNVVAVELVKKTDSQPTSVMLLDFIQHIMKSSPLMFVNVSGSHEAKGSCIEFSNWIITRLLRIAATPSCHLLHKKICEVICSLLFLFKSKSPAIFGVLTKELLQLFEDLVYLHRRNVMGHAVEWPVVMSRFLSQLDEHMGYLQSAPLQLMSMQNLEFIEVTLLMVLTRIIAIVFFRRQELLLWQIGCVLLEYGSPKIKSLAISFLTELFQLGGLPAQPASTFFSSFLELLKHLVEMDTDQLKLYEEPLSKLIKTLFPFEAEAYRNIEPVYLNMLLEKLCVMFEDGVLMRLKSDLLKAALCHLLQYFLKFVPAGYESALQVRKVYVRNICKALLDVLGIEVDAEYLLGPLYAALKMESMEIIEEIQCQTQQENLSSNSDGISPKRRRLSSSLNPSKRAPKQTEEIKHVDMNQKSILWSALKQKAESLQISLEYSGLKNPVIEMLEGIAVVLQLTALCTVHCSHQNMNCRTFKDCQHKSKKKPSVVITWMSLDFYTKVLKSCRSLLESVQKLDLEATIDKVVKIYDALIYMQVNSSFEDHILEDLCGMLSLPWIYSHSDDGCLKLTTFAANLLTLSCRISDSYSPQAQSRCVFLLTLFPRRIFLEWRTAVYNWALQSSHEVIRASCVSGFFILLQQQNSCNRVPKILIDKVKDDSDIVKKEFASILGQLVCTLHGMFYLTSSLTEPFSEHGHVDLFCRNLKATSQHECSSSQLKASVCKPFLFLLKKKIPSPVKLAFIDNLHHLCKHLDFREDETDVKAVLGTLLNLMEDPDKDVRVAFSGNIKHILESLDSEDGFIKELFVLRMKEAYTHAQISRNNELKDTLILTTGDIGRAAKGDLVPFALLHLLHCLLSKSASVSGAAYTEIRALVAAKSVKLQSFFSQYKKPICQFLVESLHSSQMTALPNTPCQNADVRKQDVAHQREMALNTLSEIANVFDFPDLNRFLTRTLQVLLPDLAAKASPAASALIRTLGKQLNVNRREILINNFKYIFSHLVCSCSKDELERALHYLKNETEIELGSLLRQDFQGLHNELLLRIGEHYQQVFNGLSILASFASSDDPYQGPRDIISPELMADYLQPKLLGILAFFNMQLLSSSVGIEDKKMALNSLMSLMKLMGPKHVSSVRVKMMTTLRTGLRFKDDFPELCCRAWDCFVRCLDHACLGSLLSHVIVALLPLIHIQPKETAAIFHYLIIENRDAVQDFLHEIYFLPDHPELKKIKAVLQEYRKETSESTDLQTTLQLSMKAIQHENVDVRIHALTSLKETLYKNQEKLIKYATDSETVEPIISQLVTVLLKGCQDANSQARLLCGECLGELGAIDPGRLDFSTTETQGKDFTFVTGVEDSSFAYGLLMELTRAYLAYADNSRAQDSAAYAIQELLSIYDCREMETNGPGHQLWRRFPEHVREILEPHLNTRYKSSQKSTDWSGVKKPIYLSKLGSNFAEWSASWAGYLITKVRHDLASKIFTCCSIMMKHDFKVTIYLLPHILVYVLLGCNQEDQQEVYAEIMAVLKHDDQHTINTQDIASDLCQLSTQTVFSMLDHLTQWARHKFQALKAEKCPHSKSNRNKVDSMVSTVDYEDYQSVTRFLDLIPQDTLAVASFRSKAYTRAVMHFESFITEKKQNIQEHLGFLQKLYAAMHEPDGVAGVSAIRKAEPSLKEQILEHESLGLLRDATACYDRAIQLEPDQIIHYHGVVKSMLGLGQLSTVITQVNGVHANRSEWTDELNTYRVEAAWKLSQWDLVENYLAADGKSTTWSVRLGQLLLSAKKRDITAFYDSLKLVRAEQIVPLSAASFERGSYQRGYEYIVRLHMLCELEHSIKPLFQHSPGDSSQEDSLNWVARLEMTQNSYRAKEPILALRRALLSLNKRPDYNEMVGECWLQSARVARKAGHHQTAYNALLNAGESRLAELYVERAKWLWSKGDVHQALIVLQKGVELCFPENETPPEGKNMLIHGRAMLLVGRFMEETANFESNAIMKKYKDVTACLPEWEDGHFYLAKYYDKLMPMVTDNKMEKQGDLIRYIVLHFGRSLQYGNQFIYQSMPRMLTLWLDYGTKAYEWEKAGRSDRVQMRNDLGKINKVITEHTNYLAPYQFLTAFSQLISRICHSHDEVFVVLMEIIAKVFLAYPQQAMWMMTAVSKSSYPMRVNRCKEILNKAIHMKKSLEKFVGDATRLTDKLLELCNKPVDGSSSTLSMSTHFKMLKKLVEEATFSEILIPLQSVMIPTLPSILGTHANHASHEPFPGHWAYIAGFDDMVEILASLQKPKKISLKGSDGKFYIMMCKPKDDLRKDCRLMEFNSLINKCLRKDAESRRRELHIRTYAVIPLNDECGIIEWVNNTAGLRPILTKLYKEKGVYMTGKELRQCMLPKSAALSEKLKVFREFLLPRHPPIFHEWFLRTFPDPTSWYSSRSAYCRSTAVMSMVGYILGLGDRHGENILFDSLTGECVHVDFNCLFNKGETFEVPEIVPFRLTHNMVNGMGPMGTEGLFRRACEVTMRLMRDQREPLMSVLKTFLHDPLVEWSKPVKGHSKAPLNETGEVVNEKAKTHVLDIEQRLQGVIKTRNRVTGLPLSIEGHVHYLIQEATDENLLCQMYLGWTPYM
T2 sequence (Q8WXE1 whole entry partner): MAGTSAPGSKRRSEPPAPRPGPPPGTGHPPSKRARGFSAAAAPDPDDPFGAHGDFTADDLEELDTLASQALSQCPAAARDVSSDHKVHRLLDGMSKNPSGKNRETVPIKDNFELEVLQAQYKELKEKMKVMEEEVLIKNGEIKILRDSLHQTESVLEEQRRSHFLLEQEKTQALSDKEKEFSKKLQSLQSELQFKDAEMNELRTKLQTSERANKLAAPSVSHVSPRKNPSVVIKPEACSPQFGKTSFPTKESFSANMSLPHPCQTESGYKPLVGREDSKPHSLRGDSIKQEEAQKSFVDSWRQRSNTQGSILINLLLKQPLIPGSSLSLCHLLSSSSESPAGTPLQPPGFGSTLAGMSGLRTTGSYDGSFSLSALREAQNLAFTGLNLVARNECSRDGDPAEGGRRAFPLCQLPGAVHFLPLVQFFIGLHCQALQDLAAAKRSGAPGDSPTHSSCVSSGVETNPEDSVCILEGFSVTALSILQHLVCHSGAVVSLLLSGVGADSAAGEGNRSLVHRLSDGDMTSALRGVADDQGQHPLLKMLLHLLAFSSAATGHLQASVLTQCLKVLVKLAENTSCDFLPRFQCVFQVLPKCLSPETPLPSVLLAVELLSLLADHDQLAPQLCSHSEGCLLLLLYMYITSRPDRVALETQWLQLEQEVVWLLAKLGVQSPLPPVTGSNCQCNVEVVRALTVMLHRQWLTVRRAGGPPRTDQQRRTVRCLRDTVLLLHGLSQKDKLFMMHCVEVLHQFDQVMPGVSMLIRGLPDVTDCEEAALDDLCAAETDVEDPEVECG
T1 sequence (Q13535 whole entry): as the sequence (Q13535 whole entry) above

Ki (full-length ATR)	clearance [2]	half-life [2]	Vd ([2]; read-out: Vss)	IC50 [3]	IC50 (intracellular ATR)	Compound	% T/C (tumour size of treatment group compared with control group) (Colo205 model; day 13, irinotecan 20 mg/kg, compound 40 mg/kg PO qd3 of a four-day cycle, five cycles)	Effect on tumors (Colo205 model; irinotecan 20 mg/kg, compound orally as a solution 40 mg/kg, PO qd3, five cycles)	Oral exposure in tumors [1]	Effect on tumors (primary NSCLC model; cisplatin 3 mg/kg, compound 30 mg/kg uid q2d)	% T/C (tumour size of treatment group compared with control group) (primary NSCLC model; day 20, cisplatin 3 mg/kg, compound 30 mg/kg uid q2d)	Cisplatin sensitization [4]	Sensitization (Colo205 model; same model (irinotecan), compound 45 mg/kg twice a day (bid))	Sensitisation (primary NSCLC model; same model (cisplatin), compound 30 mpk bid (on/1 day off))
0.14 nM	7.1 mL/min/kg	4.7 h	2.8 L/kg	83 nM	13 nM	CC(C)S(=O)(=O)c1ccc(-c2cnc(N)c(-c3cc(-c4ccc(CNC5CCOCC5)cc4)no3)n2)cc1 [Compound I-1]	10.9%	marked regression of tumors	created oral exposure in tumors compared with Compound P-110	marked regression of tumors	1.7%	39 nM	–	–
0.105 nM	–	–	–	59 nM	–	[2H]C([2H])([2H])C([2H])(C([2H])([2H])[2H])S(=O)(=O)c1ccc(-c2cnc(N)c(-c3cc(-c4ccc(CNC5CCOCC5)cc4)no3)n2)cc1 [Compound II-2, 5-[4-[1,2,2,2-tetradeuterio-1-(trideuteriomethyl)ethyl]sulfonylphenyl]-3-[3-[4-[(tetrahydropyran-4-ylamino)methyl]phenyl]isoxazol-5-yl]pyrazin-2-amine]	–	–	–	–	–	39 nM	–	–
–	–	–	–	–	–	CC(C)S(=O)(=O)c1ccc(-c2cnc(N)c(-c3cc(-c4ccc(CN[C@H]5CCOC5)cc4)no3)n2)cc1 [Compound P-110, reference compound]	–	–	–	–	–	–	no sensitization	no sensitisation
0.29 nM	12.7 mL/min/kg	2.7 h	–	205 nM	54 nM	CC(C)S(=O)(=O)c1ccc(-c2cnc(N)c(-c3cc(-c4ccc(CN[C@@H]5CCOC5)cc4)no3)n2)cc1 [P-110 (R), reference compound]	–	–	–	–	–	78 nM	–	–
0.26 nM	–	–	–	280 nM	46 nM	CC(C)S(=O)(=O)c1ccc(-c2cnc(N)c(-c3cc(-c4ccc(CN[C@H]5CCOC5)cc4)no3)n2)cc1 [P-110 (S), reference compound]	–	–	–	–	–	156 nM	–	–
